Measured values taken from US6953800B2, “Use of selective antagonists of the α1B-adrenergic receptor for improvement of sexual dysfunction” (Recordati S.A. Chemical, priority 1999, dated 2005).
Structures can show the parent of a compound that is named as a salt.

How the values were obtained:
anaesthetised dogs = experiment: Intracavernous and blood pressure recording in dogs
Method: Male beagle dogs were anaesthetised with pentobarbital sodium (i.v. Nembutal, 35 mg/kg for induction and 4 mg/kg/h for maintenance) and intubated with an endotracheal cuffed tube to facilitate free ventilation. A collateral of the left femoral vein was cannulated with a PE catheter for infusion of the anaesthetic. Systemic BP was monitored via a Mikro-tip 6F (Millar Instruments) pressure transducer introduced into the aortic arch through the right common carotid artery. ICP was measured by means of a 20-gauge needle placed into the left or right corpus cavernosum and the same needle was used for intracavernous injection of the drugs. The needle was attached to a catheter filled with heparinized saline (25 IU/mL). […] The compounds to be tested were injected intracavernously in a volume of 0.5 ml and, after each injection, the needle was flushed with 0.5 ml of saline. The vehicles for compound dissolution were tested before the first dose of each drug. The compounds were administered in a cumulative way, with a 30-minute interval between doses. ICP (mmHg) was measured at the peak effect after the administration of the compounds. The duration of tumescence (DT, min) was measured from the beginning of the rise of ICP over its basal value up to the return to baseline. The systolic blood pressure and diastolic blood pressure (mmHg) were measured at the peak effect after the administration of compounds, in order to evaluate the effects of the compounds on BP independently from the effects on ICP. Moreover, the systolic blood pressure was measured at the time of maximal ICP value after intracavernous injection, to evaluate the ICP/BP ratios. […] The data were reported as mean ±s.e. of the mean, or percent variation (±s.e.) of the basal values.

human α1b-adrenoceptor = molecular target: T1, human α1b-adrenoceptor (Homo sapiens, UniProt P35368); experiment: [3H]Prazosin binding, cloned human α1b-adrenoceptor in CHO cell membranes
T1 construct: expressed in transfected cells
T1 sequence (P35368 1-520): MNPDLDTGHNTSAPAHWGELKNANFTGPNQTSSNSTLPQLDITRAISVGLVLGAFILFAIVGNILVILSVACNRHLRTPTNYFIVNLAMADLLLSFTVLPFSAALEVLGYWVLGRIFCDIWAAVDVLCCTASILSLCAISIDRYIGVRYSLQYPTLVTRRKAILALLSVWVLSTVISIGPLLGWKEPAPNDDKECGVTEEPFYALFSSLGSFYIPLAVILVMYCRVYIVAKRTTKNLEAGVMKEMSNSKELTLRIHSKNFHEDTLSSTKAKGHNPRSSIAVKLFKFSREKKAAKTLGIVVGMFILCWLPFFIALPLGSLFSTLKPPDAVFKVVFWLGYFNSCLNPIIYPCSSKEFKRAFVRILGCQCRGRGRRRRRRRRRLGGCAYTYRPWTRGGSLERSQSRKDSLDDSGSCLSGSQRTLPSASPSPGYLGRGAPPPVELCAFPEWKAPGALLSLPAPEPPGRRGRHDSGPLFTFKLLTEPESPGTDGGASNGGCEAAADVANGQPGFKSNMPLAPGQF
Method: (§1) Binding to cloned human α1-adrenoceptor subtypes was performed in membranes from CHO cells (Chinese hamster ovary cells) transfected by electroporation with DNA expressing the gene encoding each α1-adrenoceptor subtype. […] The incubation was stopped by addition of ice-cold Tris buffer and rapid filtration through 0.2% polyethyleneimine-pretreated Whatman GF/B or Schleicher & Schuell GF52 filters.
(§2) Data are expressed as mean Ki. All patents and other references cited herein are incorporated by reference in their entirety.

human α1d-adrenoceptor = molecular target: T2, human α1d-adrenoceptor (Homo sapiens, UniProt P25100); experiment: [3H]Prazosin binding, cloned human α1d-adrenoceptor in CHO cell membranes; details: read-out: Affinity (Ki) α1d, human cloned receptors
T2 construct: expressed in transfected cells
T2 sequence (P25100 1-572): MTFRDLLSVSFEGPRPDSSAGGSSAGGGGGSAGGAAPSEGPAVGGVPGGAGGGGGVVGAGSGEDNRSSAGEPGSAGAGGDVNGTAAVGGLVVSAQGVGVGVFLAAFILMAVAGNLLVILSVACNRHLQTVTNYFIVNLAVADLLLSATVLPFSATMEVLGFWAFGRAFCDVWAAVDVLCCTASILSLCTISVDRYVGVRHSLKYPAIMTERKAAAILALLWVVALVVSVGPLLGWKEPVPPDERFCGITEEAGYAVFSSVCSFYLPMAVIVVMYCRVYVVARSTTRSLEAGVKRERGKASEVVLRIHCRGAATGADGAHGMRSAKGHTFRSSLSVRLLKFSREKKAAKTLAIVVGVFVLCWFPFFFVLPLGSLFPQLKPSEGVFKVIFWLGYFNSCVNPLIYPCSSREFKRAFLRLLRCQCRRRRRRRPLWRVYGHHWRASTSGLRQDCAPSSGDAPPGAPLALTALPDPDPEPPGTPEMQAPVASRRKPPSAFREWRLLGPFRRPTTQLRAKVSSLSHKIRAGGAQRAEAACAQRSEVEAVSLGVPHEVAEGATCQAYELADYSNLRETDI
Method: as §1, §2

human α1a-adrenoceptor = molecular target: T3, human α1a-adrenoceptor (Homo sapiens, UniProt P35348); experiment: biochemical
T3 sequence (P35348 1-466): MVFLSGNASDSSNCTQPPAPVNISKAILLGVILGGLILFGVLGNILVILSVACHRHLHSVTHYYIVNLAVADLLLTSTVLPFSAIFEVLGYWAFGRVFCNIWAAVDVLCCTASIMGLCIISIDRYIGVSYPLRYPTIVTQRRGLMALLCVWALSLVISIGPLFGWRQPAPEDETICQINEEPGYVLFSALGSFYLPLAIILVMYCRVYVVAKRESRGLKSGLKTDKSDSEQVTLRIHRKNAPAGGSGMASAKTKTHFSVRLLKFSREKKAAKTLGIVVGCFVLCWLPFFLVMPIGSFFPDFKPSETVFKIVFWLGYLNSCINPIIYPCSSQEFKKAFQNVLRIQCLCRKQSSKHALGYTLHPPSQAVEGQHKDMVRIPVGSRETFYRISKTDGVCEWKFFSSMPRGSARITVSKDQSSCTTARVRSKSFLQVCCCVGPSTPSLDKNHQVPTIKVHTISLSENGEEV

hamster α1b-adrenoceptor = molecular target: T4, hamster α1b-adrenoceptor (Mesocricetus auratus, UniProt P18841); experiment: [3H]Prazosin binding, hamster α1b-adrenoceptor in COS-7 cell membranes; details: COS-7 membranes, read-out: Affinity (Ki) α1b, animal cloned receptors
T4 construct: expressed in transfected cells; host or cells: COS-7 cells (transient), membranes
T4 sequence (P18841 1-515): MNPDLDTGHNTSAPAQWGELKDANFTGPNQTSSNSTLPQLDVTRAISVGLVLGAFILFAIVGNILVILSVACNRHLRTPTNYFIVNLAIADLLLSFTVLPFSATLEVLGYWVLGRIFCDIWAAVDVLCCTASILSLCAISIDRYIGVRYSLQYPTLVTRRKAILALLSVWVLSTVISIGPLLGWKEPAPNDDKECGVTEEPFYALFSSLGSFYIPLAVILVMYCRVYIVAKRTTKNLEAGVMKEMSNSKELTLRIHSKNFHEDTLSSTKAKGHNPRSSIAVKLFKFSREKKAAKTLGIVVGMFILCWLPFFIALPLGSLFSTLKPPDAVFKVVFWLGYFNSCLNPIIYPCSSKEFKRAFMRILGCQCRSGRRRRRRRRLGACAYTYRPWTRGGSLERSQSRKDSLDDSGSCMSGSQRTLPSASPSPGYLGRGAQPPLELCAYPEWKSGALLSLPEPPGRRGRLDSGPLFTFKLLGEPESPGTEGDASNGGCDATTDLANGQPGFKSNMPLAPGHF
Method: The incubation was stopped by addition of ice-cold Tris buffer and rapid filtration through 0.2% polyethyleneimine pretreated Whatman GF/B or Schleicher & Schuell GF52 filters.
as §2

With `COc1cc2nc(N3CCN(C(=O)c4ccco4)[C@@H]4CCCC[C@@H]43)nc(N)c2cc1OC` [Compound B, 4-Amino-6,7-dimethoxy-2-[(4aR,8aS)-4-(2-furoyl)-cis-octahydro-1-quinoxalinyl]-quinazoline hydrochloride] the DBP (anaesthetised dogs; 3 μg/kg intracavernous) was 110.7 ± 5.5 mmHg, the “DT (duration of tumescence)” value (anaesthetised dogs; 3 μg/kg intracavernous) was 2.5 ± 0.9 min and the ICP (anaesthetised dogs; 3 μg/kg intracavernous) was 36.7 ± 2.2 mmHg. For the same molecule, the SBP (anaesthetised dogs; 3 μg/kg intracavernous) was 151.7 ± 7.3 mmHg, the “SBPICP (SBP at the time of maximal ICP value)” value (shortened to “SBPICP”) (anaesthetised dogs; 3 μg/kg intracavernous) was 153.3 ± 7.0 mmHg and the “increase of ICP in comparison with basal ICP values” (anaesthetised dogs; 3 μg/kg intracavernous) was 13.7 mmHg. The DBP (anaesthetised dogs; 30 μg/kg intracavernous) was 107.3 ± 4.2 mmHg, the “DT (duration of tumescence)” value (anaesthetised dogs; 30 μg/kg intracavernous) was 4.3 ± 2.0 min and the ICP (anaesthetised dogs; 30 μg/kg intracavernous) was 49.3 ± 14.2 mmHg. The SBP (anaesthetised dogs; 30 μg/kg intracavernous) was 150.0 ± 5.9 mmHg, the “SBPICP” value (anaesthetised dogs; 30 μg/kg intracavernous) was 151.0 ± 5.7 mmHg and the DBP (anaesthetised dogs; 100 μg/kg intracavernous) was 104.3 ± 4.2 mmHg. For the same molecule, the “DT (duration of tumescence)” value (anaesthetised dogs; 100 μg/kg intracavernous) was 4.4 ± 1.6 min, the ICP (anaesthetised dogs; 100 μg/kg intracavernous) was 52.7 ± 13.0 mmHg and the SBP (anaesthetised dogs; 100 μg/kg intracavernous) was 146.0 ± 4.8 mmHg. The “SBPICP” value (anaesthetised dogs; 100 μg/kg intracavernous) was 147.3 ± 5.0 mmHg, the DBP (anaesthetised dogs; 300 μg/kg intracavernous) was 98.0 ± 6.9 mmHg and the “DT (duration of tumescence)” value (anaesthetised dogs; 300 μg/kg intracavernous) was 3.5 ± 1.1 min. The ICP (anaesthetised dogs; 300 μg/kg intracavernous) was 57.3 ± 11.4 mmHg, the SBP (anaesthetised dogs; 300 μg/kg intracavernous) was 139.0 ± 6.6 mmHg and the “SBPICP” value (anaesthetised dogs; 300 μg/kg intracavernous) was 147.3 ± 5.7 mmHg. The “increase of ICP in comparison with basal ICP values” (anaesthetised dogs; 1000 μg/kg (1000 μg given for prazosin, phentolamine) intracavernous) was 73.3 mmHg, the DBP (anaesthetised dogs; 1000 μg/kg intracavernous) was 81.0 ± 4.3 mmHg and the ICP (anaesthetised dogs; 1000 μg/kg intracavernous) was 93.3 ± 6.2 mmHg. The SBP (anaesthetised dogs; 1000 μg/kg intracavernous) was 121.7 ± 4.9 mmHg, the “SBPICP” value (anaesthetised dogs; 1000 μg/kg intracavernous) was 135.7 ± 6.8 mmHg and the “duration of action compared with reference compounds” value (anaesthetised dogs; Compound B at the highest dose tested) was “higher than that of the reference compounds tested”. The “hypotension on diastolic blood pressure (change)” value (anaesthetised dogs; highest dose 1000 μg/kg) was −31 mmHg, the “effect on ICP (in words)” value (anaesthetised dogs; intracavernous injection) was “increased ICP in a dose-dependent way” and the Ki (human α1b-adrenoceptor) was 0.17 nM. It also gave a Ki (human α1d-adrenoceptor) of 2.63 nM, a Ki (human α1a-adrenoceptor) of 9.43 nM and a Ki (hamster α1b-adrenoceptor) of 0.68 nM.
